ChEMBL document CHEMBL4024706 (Eur J Med Chem, 2017)
Activity calls are given as the source filed them. The calls are words filed in the database; no cut-off is given here.

Key:
[1] = target: T1, Tyrosine-protein kinase BTK (Homo sapiens, UniProt Q06187); assay: Inhibition of full length recombinant human N-terminal His tagged […] expressed in baculovirus infected Sf9 insect cells using poly (Glu,Tyr)4:1 as substrate pretreated for 60 mins followed by substrate addition after 1 hr by ADP-Glo luminescence assay
[2] = target: T2, Tyrosine-protein kinase JAK3 (Homo sapiens, UniProt P52333); assay: Inhibition of recombinant human N-terminal GST-tagged JAK3 (781 to end residues) expressed in baculovirus infected Sf9 insect cells using poly (Glu,Tyr)4:1 as substrate pretreated for 60 mins followed by substrate addition after 1 hr by ADP-Glo luminescence assay
T2 sequence (P52333 whole entry): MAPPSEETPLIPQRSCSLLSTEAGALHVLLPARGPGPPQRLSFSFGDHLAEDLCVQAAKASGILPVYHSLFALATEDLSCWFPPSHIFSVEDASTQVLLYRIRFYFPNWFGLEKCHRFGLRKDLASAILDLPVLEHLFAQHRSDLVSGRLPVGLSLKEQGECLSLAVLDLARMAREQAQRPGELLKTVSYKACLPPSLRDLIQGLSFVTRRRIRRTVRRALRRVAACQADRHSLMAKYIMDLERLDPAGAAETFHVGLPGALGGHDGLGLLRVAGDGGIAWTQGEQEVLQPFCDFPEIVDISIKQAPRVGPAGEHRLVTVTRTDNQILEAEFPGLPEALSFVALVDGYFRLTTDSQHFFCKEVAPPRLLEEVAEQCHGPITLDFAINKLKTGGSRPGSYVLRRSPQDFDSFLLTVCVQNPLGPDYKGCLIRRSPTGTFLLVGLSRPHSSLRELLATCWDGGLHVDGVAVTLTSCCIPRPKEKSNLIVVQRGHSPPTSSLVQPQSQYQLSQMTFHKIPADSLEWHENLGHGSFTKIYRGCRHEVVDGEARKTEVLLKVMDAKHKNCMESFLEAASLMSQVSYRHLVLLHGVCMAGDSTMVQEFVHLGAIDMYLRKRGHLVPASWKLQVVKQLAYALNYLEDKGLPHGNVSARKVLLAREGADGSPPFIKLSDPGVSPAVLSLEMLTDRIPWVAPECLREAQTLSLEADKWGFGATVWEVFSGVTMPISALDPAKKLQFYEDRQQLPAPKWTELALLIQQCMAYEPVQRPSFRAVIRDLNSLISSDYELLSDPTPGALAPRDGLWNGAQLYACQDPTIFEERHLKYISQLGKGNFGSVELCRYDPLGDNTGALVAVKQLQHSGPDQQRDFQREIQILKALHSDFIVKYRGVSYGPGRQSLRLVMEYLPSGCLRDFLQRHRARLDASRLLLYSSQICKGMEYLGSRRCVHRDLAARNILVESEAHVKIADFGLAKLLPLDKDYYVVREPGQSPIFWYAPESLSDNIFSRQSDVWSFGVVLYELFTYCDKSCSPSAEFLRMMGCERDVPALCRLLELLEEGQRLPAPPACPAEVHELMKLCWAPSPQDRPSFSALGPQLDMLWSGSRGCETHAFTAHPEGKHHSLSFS

[3] = target: Epidermal growth factor receptor (Homo sapiens, UniProt P00533); assay: Inhibition of recombinant human N-terminal GST-tagged wild-type EGFR (695 to end residues) expressed in baculovirus infected Sf9 insect cells using poly (Glu,Tyr)4:1 as substrate pretreated for 60 mins followed by substrate addition after 1 hr by ADP-Glo luminescence assay
[4] = target: T1, Tyrosine-protein kinase BTK; assay: Reversible inhibition of full length recombinant human N-terminal His tagged […] expressed in baculovirus infected Sf9 insect cells using poly (Glu,Tyr)4:1 as substrate pretreated for 2 to 60 mins followed by substrate addition after 1 hr by ADP-Glo luminescence assay
SU-DHL-2 = assay: Growth inhibition of human SU-DHL-2 cells; assay type: functional; conditions: Homo sapiens, SU-DHL-2
MV4-11 = assay: Growth inhibition of human MV411 cells; assay type: functional; conditions: Homo sapiens, MV4-11
U2932 [5] = assay: Growth inhibition of human U2932 cells; assay type: functional; conditions: Homo sapiens, U2932
Ramos = assay: Growth inhibition of human Ramos cells; assay type: functional; conditions: Homo sapiens, Ramos
OCI-AML-3 = assay: Growth inhibition of human OCI-AML3 cells; assay type: functional; conditions: Homo sapiens, OCI-AML-3
Pfeiffer [6] = assay: Growth inhibition of human Pfeiffer cells; assay type: functional; conditions: Homo sapiens, Pfeiffer
U-937 = assay: Growth inhibition of human U937 cells; assay type: functional; conditions: Homo sapiens, U-937
NB-4 = assay: Growth inhibition of human NB4 cells; assay type: functional; conditions: Homo sapiens, NB-4
SKM-1 = assay: Growth inhibition of human SKM1 cells; assay type: functional; conditions: Homo sapiens, SKM-1
[7] = Growth inhibition of human M07e cells; assay type: functional; conditions: Homo sapiens, M-07e
PBMC = assay: Cytotoxicity against PBMC (unknwon origin); assay type: cell-based
[8] = AUC (0 to t) in Sprague-Dawley rat at 1 mg/kg, iv by LC-MS/MS method; assay type: ADME, organism-based; conditions: in vivo
[9] = AUC (0 to t) in Sprague-Dawley rat at 10 mg/kg, po by LC-MS/MS method; assay type: ADME, organism-based; conditions: in vivo
[10] = AUC (0 to infinity) in Sprague-Dawley rat at 1 mg/kg, iv by LC-MS/MS method; assay type: ADME, organism-based; set-up: dose 1 mg/kg, route intravenous, time infinity; conditions: in vivo
[11] = AUC (0 to infinity) in Sprague-Dawley rat at 10 mg/kg, po by LC-MS/MS method; assay type: ADME, organism-based; set-up: dose 10 mg/kg, route oral, time infinity; conditions: in vivo
[12] = MRT (0 to t) in Sprague-Dawley rat at 1 mg/kg, iv by LC-MS/MS method; assay type: ADME, organism-based; conditions: in vivo
[13] = MRT (0 to t) in Sprague-Dawley rat at 10 mg/kg, po by LC-MS/MS method; assay type: ADME, organism-based; conditions: in vivo
[14] = Elimination half-life in Sprague-Dawley rat at 1 mg/kg, iv by LC-MS/MS method; assay type: ADME, organism-based; conditions: in vivo, read-out: beta t1/2 (converted)
[15] = Elimination half-life in Sprague-Dawley rat at 10 mg/kg, po by LC-MS/MS method; assay type: ADME, organism-based; conditions: in vivo, read-out: beta t1/2 (converted)
[16] = Tmax in Sprague-Dawley rat at 1 mg/kg, iv by LC-MS/MS method; assay type: ADME, organism-based; conditions: in vivo
[17] = Tmax in Sprague-Dawley rat at 10 mg/kg, po by LC-MS/MS method; assay type: ADME, organism-based; conditions: in vivo
[18] = Cmax in Sprague-Dawley rat at 1 mg/kg, iv by LC-MS/MS method; assay type: ADME, organism-based; set-up: dose 1 mg/kg, route intravenous; conditions: in vivo
[19] = Cmax in Sprague-Dawley rat at 10 mg/kg, po by LC-MS/MS method; assay type: ADME, organism-based; set-up: dose 10 mg/kg, route oral; conditions: in vivo
[20] = Oral bioavailability in Sprague-Dawley rat at 10 mg/kg by LC-MS/MS method; assay type: ADME, organism-based; conditions: in vivo
[21] = target: T1, Tyrosine-protein kinase BTK
[22] = target: T1, Tyrosine-protein kinase BTK; assay: Irreversible inhibition of recombinant full length wild-type 3'-FLAG-tagged BTK (unknown origin) expressed in HEK293T cells assessed as reduction in Y223 phosphorylation measured after 4 hrs by Western blot method; assay type: cell-based
[23] = target: Tyrosine-protein kinase BTK (Homo sapiens, UniProt Q06187, C481S); assay: Irreversible inhibition of recombinant full length 3'-FLAG-tagged BTK C481S mutant (unknown origin) expressed in HEK293T cells assessed as reduction in Y223 phosphorylation measured after 4 hrs by Western blot method; assay type: cell-based
Pfeiffer [24] = assay: Cell cycle arrest in human Pfeiffer cells assessed as increase in accumulation at G0/G1 phase at 10 uM after 48 hrs by propidium iodide/RNase staining based flow cytometric method; assay type: functional
U2932 [25] = assay: Cell cycle arrest in human U2932 cells assessed as increase in accumulation at G0/G1 phase at 10 uM after 48 hrs by propidium iodide/RNase staining based flow cytometric method; assay type: functional

T1 sequence (Q06187 whole entry): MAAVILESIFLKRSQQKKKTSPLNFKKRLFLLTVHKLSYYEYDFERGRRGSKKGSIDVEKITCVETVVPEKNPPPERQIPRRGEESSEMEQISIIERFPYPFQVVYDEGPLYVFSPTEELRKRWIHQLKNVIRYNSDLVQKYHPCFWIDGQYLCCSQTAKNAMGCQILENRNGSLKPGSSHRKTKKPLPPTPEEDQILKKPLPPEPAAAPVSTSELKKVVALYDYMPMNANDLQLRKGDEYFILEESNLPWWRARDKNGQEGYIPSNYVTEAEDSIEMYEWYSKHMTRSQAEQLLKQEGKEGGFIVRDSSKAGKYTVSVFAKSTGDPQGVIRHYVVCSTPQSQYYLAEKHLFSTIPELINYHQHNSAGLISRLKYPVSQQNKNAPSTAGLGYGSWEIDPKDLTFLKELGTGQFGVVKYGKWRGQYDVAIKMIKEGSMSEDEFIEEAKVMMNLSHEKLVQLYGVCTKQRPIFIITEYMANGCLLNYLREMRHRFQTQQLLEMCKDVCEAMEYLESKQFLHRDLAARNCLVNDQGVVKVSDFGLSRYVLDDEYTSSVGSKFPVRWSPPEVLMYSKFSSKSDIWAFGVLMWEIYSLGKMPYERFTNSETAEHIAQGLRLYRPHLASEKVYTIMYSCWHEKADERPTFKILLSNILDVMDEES
Sequence of Epidermal growth factor receptor (P00533 whole entry): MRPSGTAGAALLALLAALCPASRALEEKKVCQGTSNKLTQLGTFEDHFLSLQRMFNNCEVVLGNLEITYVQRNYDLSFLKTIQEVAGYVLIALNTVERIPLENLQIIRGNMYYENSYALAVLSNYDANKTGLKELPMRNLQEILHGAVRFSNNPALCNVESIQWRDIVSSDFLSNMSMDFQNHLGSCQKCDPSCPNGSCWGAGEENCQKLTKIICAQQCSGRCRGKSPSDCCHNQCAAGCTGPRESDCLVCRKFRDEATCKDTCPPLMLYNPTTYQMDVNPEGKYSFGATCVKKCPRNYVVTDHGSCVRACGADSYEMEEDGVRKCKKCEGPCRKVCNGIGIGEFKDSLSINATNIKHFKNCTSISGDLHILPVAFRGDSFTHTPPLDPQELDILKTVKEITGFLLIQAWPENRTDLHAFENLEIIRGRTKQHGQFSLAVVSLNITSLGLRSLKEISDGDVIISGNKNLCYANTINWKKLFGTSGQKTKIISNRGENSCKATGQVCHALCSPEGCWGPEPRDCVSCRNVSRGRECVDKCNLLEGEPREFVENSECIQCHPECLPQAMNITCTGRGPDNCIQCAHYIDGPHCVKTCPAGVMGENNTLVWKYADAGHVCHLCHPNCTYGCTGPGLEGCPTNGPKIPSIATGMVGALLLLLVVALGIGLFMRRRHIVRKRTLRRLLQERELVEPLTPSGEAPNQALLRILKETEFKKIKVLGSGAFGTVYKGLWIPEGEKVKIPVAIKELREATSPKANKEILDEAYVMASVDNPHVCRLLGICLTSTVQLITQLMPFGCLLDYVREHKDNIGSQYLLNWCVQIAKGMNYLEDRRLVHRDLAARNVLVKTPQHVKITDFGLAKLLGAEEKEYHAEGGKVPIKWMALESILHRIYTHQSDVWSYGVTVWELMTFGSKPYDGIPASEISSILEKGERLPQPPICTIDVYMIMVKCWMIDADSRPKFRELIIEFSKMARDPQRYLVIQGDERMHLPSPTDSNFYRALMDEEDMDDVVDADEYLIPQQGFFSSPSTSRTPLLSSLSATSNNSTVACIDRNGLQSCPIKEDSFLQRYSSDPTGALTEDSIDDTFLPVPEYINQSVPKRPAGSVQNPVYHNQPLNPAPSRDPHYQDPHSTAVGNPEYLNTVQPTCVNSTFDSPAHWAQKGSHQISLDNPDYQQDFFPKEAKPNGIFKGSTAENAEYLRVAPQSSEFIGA
Sequence of Tyrosine-protein kinase BTK (Homo sapiens, UniProt Q06187, C481S) (Q06187 2-659 C481S limits assumed): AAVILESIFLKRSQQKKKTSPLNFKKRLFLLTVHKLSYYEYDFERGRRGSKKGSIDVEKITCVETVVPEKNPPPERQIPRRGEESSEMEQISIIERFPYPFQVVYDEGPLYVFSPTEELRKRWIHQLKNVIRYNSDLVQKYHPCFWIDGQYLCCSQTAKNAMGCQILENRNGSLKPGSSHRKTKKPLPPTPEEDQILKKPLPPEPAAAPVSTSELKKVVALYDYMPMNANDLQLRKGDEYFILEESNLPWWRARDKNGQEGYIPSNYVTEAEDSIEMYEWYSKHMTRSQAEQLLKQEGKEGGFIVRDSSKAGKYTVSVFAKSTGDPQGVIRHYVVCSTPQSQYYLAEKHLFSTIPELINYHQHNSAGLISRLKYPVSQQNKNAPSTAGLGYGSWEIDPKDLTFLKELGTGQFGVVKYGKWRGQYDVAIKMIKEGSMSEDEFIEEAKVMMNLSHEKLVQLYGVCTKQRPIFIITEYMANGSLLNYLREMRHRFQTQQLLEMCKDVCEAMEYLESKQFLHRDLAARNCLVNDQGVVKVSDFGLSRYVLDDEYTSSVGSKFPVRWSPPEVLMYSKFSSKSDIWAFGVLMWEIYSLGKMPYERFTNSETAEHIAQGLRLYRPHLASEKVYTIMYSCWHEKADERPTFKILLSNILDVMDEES

C=CC(=O)Nc1cc(Nc2cc(-c3cccc(NC(=O)c4ccc(N(C)C)cc4)c3C)cn(C)c2=O)ccc1C(=O)N1CCOCC1
IC50 [1]: 0.0058 µM
IC50 [2]: 2.01 µM
IC50 [3]: 5.88 µM
Ki [4]: 0.113 µM
GI50 (SU-DHL-2): 2.6 µM
GI50 (MV4-11): 1.9 µM
GI50 (U2932 [5]): 6.9 µM
GI50 (Ramos): 2.1 µM
GI50 (OCI-AML-3): 2.6 µM
GI50 (Pfeiffer [6]): 9 µM
GI50 (U-937): 2.6 µM
GI50 (NB-4): 1.9 µM
GI50 (SKM-1): 1 µM
GI50 [7]: 3.2 µM
Activity (PBMC): Non-Toxic
AUC(0-t) [8]: 317 ng·h/mL
AUC(0-t) [9]: 151 ng·h/mL
AUC(0-inf) [10]: 317 ng·h/mL
AUC(0-inf) [11]: 291 ng·h/mL
MRT last [12]: 9.6 min
MRT last [13]: 203 min
half-life [14]: 14.4 min
half-life [15]: 472 min
Tmax [16]: 1.02 min
Tmax [17]: 4.98 min
Cmax [18]: 2440 ng/mL
Cmax [19]: 144 ng/mL
bioavailability [20]: 4.76%
Kinact [21]: 0.33 min⁻¹

CCC(=O)Nc1cc(Nc2cc(-c3cccc(NC(=O)c4ccc(C(C)(C)C)cc4)c3C)cn(C)c2=O)ccc1C(=O)N1CCOCC1
IC50 [1]: 0.163 µM
EC50 [22]: > 0.1 µM
EC50 [23]: > 0.1 µM
GI50 (SU-DHL-2): > 10 µM
GI50 (MV4-11): 4.8 µM
GI50 (U2932 [5]): > 10 µM
GI50 (Ramos): 4.6 µM
GI50 (OCI-AML-3): 9.5 µM
GI50 (Pfeiffer [6]): > 10 µM
GI50 (U-937): > 10 µM
GI50 (NB-4): > 10 µM
GI50 (SKM-1): > 10 µM
GI50 [7]: > 10 µM
Activity (Pfeiffer [24]): inactive
Activity (U2932 [25]): inactive

C=CC(=O)Nc1cc(Nc2cc(-c3cccc(NC(=O)c4cc5c(s4)CCCC5)c3C)cn(C)c2=O)ccc1C(=O)N1CCOCC1
IC50 [1]: 0.0165 µM
IC50 [2]: 1.03 µM
IC50 [3]: 6.86 µM
Ki [4]: 0.006 µM
GI50 (SU-DHL-2): 1.8 µM
GI50 (MV4-11): 2.2 µM
GI50 (U2932 [5]): 2.3 µM
GI50 (Ramos): 1.2 µM
GI50 (OCI-AML-3): 2.3 µM
GI50 (Pfeiffer [6]): 3.5 µM
GI50 (U-937): 1.6 µM
GI50 (NB-4): 2.4 µM
GI50 (SKM-1): 2.8 µM
GI50 [7]: 2.8 µM
Activity (PBMC): Non-Toxic
AUC(0-t) [8]: 1560 ng·h/mL
AUC(0-t) [9]: 1790 ng·h/mL
AUC(0-inf) [10]: 1560 ng·h/mL
AUC(0-inf) [11]: 1900 ng·h/mL
MRT last [12]: 26.5 min
MRT last [13]: 141 min
half-life [14]: 36.5 min
half-life [15]: 232 min
Tmax [16]: 1.02 min
Tmax [17]: 90 min
Cmax [18]: 7620 ng/mL
Cmax [19]: 1120 ng/mL
bioavailability [20]: 11.5%
Kinact [21]: 0.05 min⁻¹
